Measured values taken from PubChem BioAssay (NCI).
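Tested at 5 concentrations; 48 h exposure; 96-well plates; endpoints linearly interpolated, else capped at highest concentration. Here, GI50 denotes the concentration required for 50% inhibition of growth. TGI: total growth inhibition.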

Legend:
Assay in all cases: growth of human tumour cells (NCI), 48 h
[1] = test system: DLD-1 colon
[2] = test system: DMS 114 small cell lung
[3] = test system: M19-MEL melanoma
[4] = test system: OVCAR-4 ovarian
[5] = test system: LXFL 529 NSCLC
[6] = test system: SN12C renal
[7] = test system: XF 498 CNS
[8] = test system: OVCAR-5 ovarian
[9] = test system: M14 melanoma
[10] = test system: KM20L2 colon
[11] = test system: SNB-78 CNS
[12] = test system: HOP-18 NSCLC
[13] = test system: DMS 273 small cell lung
[14] = test system: SN12K1 renal
[15] = test system: 786-0 renal

SMILES | TGI [1] [µM] | TGI [2] [µM] | TGI [3] [µM] | TGI [4] [µM] | TGI [5] [µM] | TGI [6] [µM] | TGI [7] [µM] | TGI [8] [µM] | TGI [9] [µM] | TGI [10] [µM] | TGI [11] [µM] | TGI [12] [µM] | TGI [13] [µM] | GI50 [10] [µM] | TGI [14] [µM] | GI50 [11] [µM] | GI50 [4] [µM] | GI50 [6] [µM] | GI50 [9] [µM] | TGI [15] [µM]
O=S(O)CCCSSSCCCS(=O)O | > 100 | > 100 | > 100 | > 100 | > 100 | > 100 | > 100 | > 100 | > 100 | > 100 | > 100 | – | – | – | – | – | – | – | – | –
CN(C)c1cccc(OC(=O)NCCCl)c1 | > 100 | > 100 | > 100 | > 100 | – | > 100 | > 100 | > 100 | – | > 100 | > 100 | > 100 | > 100 | > 100 | > 100 | > 100 | – | – | – | –
c1csc(-c2ccc(CNc3c4ccccc4nc4ccccc34)cc2)c1 | – | – | – | 3.07 | – | 28.8 | – | – | 3.4 | – | – | – | – | – | – | – | 1.53 | 9.15 | 1.75 | –
COC(=O)c1sc2c(c1C(=O)OC)C(=NC(C)(C)C)SC2=NC(C)(C)C | – | – | – | 44 | – | 34.5 | – | 37.2 | 32.2 | – | – | – | – | – | – | – | – | – | – | 30.4
c1ccc2c(c1)SCCc1cn[nH]c1-2 | > 100 | > 100 | > 100 | > 100 | – | > 100 | > 100 | > 100 | – | > 100 | > 100 | > 100 | > 100 | – | > 100 | – | – | – | – | –
Nc1ccc(Cn2ccc3c4c(N)nc(N)nc4ccc32)cc1 | 17 | 1.94 | 5.59 | 4.75 | 15.7 | 8.67 | 2.9 | 19.4 | 6.45 | 10.8 | 32.5 | 21.9 | 11.9 | – | – | – | – | – | – | 16.4
N#C/C(=C\c1ccc([N+](=O)[O-])o1)c1n[nH]c(Cc2ccccc2)n1 | – | – | – | 3.55 | – | 4.03 | – | 3.5 | 3.92 | – | – | – | – | – | – | – | – | – | – | 3.85
COCCNCc1ccc(-c2cc3nccc(Oc4ccc(NC(=O)C5(C(=O)Nc6ccc(F)cc6)CC5)cc4F)c3s2)nc1 | – | – | – | 4.79 | – | – | – | – | – | – | – | – | – | – | – | – | 1.67 | – | – | –
S=c1[nH]n2c(COc3ccc(Cl)cc3)nnc2s1 | – | – | – | > 100 | – | > 100 | – | > 100 | > 100 | – | – | – | – | – | – | – | – | – | – | > 100
O=C1C(c2c(O)[nH]c3ccc(Cl)cc23)=Nc2ccccc21 | – | – | – | 5.42 | – | > 100 | – | > 28.1 | > 100 | – | – | – | – | – | – | – | – | – | – | 3.9
NNC(=O)CCc1ccc2ccc3ccccc3c2c1 | – | – | – | > 100 | – | > 100 | – | > 100 | > 100 | – | – | – | – | – | – | – | – | – | – | > 100
Cc1cccc2c1Sc1ccccc1C2NC(=O)CN(C)C (configuration not stated) | – | > 100 | > 100 | > 100 | > 100 | > 100 | > 100 | > 100 | > 100 | 37.4 | > 100 | – | > 100 | – | – | – | – | – | – | –
CSCC(CO)NC(=O)/C=C/c1c(C)[nH]c(=O)[nH]c1=O (configuration not stated) | > 875 | > 801 | > 875 | 389 | – | > 875 | 815 | > 875 | – | > 875 | > 875 | > 875 | > 875 | – | > 875 | – | – | – | – | –
Cc1ccc(C(C)C)c(OCC(=O)N/N=C/c2c[nH]c3ccc(Br)cc23)c1 | – | – | – | 13.6 | – | 13 | – | 17.6 | 4.63 | – | – | – | – | – | – | – | – | – | – | 12.6
NNC(=O)c1cc([N+](=O)[O-])ccc1NC(=O)C12CC3CC(CC(C3)C1)C2 | – | – | – | 23 | – | > 100 | – | > 100 | > 100 | – | – | – | – | – | – | – | – | – | – | > 100
Clc1cc(OCc2nn3c(Cc4ccccc4)nnc3s2)c(Cl)cc1OCc1nn2c(Cc3ccccc3)nnc2s1 | – | – | – | > 100 | – | > 100 | – | > 100 | > 100 | – | – | – | – | – | – | – | – | – | – | > 100
O=C(Sc1n[nH]c(=O)[nH]c1=O)c1cccc2nc3ccccc3nc12 | – | – | – | > 100 | – | > 100 | – | > 100 | > 100 | – | – | – | – | – | – | – | – | – | – | > 100
CO/C=C1\OC(=O)C=C1OC | > 100 | > 100 | > 100 | > 100 | – | > 100 | > 100 | > 100 | – | – | > 100 | > 100 | > 100 | – | > 100 | – | – | – | – | –
CN(c1ccccc1)c1nc(=[N+]2CCCC2)ss1 | – | > 100 | – | > 100 | > 100 | > 100 | – | – | > 100 | > 100 | > 100 | > 100 | > 100 | – | – | – | – | – | – | > 100
CC(=O)OC1CC(OC2C(O)CC(OC3C(O)CC(OC4CCC5(C)C(CCC6C5CCC5(C)C(C7=CC(=O)OC7)CCC65O)C4)OC3C)OC2C)OC(C)C1OC1OC(CO)C(O)C(O)C1O (configuration not stated) | – | – | – | 0.162 | – | 0.286 | – | 0.116 | 0.188 | – | – | – | – | – | – | – | – | – | – | 0.0598
CC1(C)N=C(c2ccccc2)SC12S[C@@H]1CCCC[C@H]1S2 | – | – | – | > 100 | – | > 100 | – | > 100 | > 100 | – | – | – | – | – | – | – | – | – | – | –
COc1cc(NCCC(=O)O)c2ncccc2c1 | – | – | – | > 100 | – | > 100 | – | > 100 | > 100 | – | – | – | – | – | – | – | – | – | – | > 100
